# Reference: US20250255856A1, “THERAPEUTIC COMPOSITIONS WITH IMINO SUGARS FOR THE TREATMENT OF DISEASES WITH ACCUMULATION OF HEPARAN SULFATE” (priority 2022, published 2025)
# Where a name gives a salt, the structure may show the parent alone.
# Legend:
# [1] = tested on: NAGLU-silenced clone (cl5) of human neuroblastoma cell line SK-NBE; assay: Lamp1 immunofluorescence (lysosomal accumulation) in NAGLU-silenced SK-NBE clone, Sanfilippo B model; assay type: cell-based; settings: 48 hours; for Cells positive for Lamp1 (%) / Relative Lamp1 fluorescence intensity: cl5 clone, 20 μM; for Effect on lysosomal enlargement and accumulation (lysosomal phenotype), in words: clone 5, 20 μM
# Excerpt: (§1) To study the effects of the compounds on the lysosomal dysfunctions in a neuronal model of Sanfilippo B disease (MPS IIIB), we recently generated stable clones of the human neuroblastoma cell line SK-NBE silenced for the NAGLU gene causative of MPS IIIB [De Pasquale V, et al. (2021). Biochim Biophys Acta Mol Cell Res. 1868, 119113.]. Mimicking the features of Sanfilippo B disease, silencing of NAGLU causes accumulation of heparan sulfate and accumulation of lysosomes in the cytoplasm of stable SK-NBE clones compared to the control (WT) clone.
# (§2) Therefore, NAGLU-silenced clone (c15) and control clone (WT) were selected to test the effect of L-deoxyminosugars (L-DNJ, L-NBDNJ, L-NNDNJ, L-HPDNJ, L-NPDNJ, L-AMPDNM and L-MONDNJ) in the hydrochloride form on the lysosomal phenotype of our cell model of Sanfilippo B (MPS IIIB).
# (§3) Clone 5 was cultured in the presence of 20 μM of each L-deoxyminosugar under normal growth conditions and after 48 hours the lysosomal accumulation was evaluated with immunofluorescence technique by using a specific antibody against Lamp1 (lysosomal marker). […] Furthermore, upon treatment with the active L-deoxyminosugar the lysosomes are no longer concentrated in the perinuclear region of the cells, as occurs in several lysosomal diseases, but they are physiologically distributed throughout the cytoplasm.
# [2] = tested on: control clone (WT) of human neuroblastoma cell line SK-NBE; assay: Heparan sulfate (HS) immunofluorescence in control (WT) SK-NBE clone; assay type: cell-based; settings: 20 μM, 48 hours
# [3] = tested on: human adult dermal fibroblasts HDFa; assay: HS and Lamp1 immunofluorescence in control fibroblasts HDFa; assay type: cell-based; settings: 20 μM, 48 hours
# Experimental: (§4) To verify whether the selected iminosugars could exert the same effects also on the fibroblasts of patients affected by Sanfilippo disease, human adult dermal fibroblasts HDFa (purchased from Sigma-Aldrich) were used as control, and fibroblasts of patients affected by Sanfilippo A and B (MPS IIIA and IIIB) were used as disease model.
# (§5) Cells were cultured in the presence of the selected L-iminosugars at a dosage of 20 μM and after 48 hours were treated for HS and Lamp1 immunofluorescence. Treatment with L-iminosugars had no effect on control HDFa (Table 3).
# (§6) Cells were grown in the presence of the iminosugars D-DNJ, D-NBDNJ, D-AMPDNM and D-MONDNJ at the dosage of 20 μM and after 48 hours were treated for HS and Lamp1 immunofluorescence. Treatment with D-iminosugars had no effect on HDFa and fibroblasts of patients affected by Sanfilippo A and B (MPS IIIA and MPS IIIB) both on HS and lysosome accumulation (Table 4).
# [4] = tested on: fibroblasts of patients affected by Sanfilippo B (MPS IIIB); assay: HS and Lamp1 immunofluorescence in Sanfilippo B patient fibroblasts; assay type: cell-based, human; settings: 20 μM, 48 hours; for Relative fluorescence intensity compared to HDFa, HS / Relative fluorescence intensity compared to HDFa, Lamp1 / Cells positive for HS (%) / Cells positive for Lamp1 (%): MPS-IIIB fibroblasts; for Effect on HS and lysosome (Lamp1) accumulation, in words: Sanfilippo B (MPS IIIB) patient fibroblasts
# Excerpt: as §4
# (§7) The human cell lines, fibroblasts, from patients with MPS (Sanfilippo disease) used in the examples were obtained from the G. Gaslini Institute of Genoa, “Cell Line and DNA Biobank from Patients Affected by Genetic Diseases”-Telethon Genetic Biobank Network—Telethon research service. These cells are classified with identification codes and by type of disease without allowing patient identification. Cells were collected from the patients, at the Gaslini Institute, with informed consent to the collection extended to conservation and its possible use, for diagnosis and/or research purposes according to current legislation as required by the guidelines followed by the Telethon biobanks. The Network operates abiding by the Italian Privacy and Data Protection Laws in force, including: Italian Data Protection Authority, Personal Data Protection Code, Legislative Decree no. 196, 30 Jun. 2003, published in Official Gazette No. 174 of the Italian Republic, 29 Jul. 2003; Italian Data Protection Authority, General Authorization for the processing of genetic data, 24 Jun. 2011, published in Official Gazette No. 159 of Italian Republic, 11 Jul. 2011.
# as §5, §6
# [5] = tested on: HeLa tumor epithelial cells; assay: HeLa cell proliferation assay; assay type: cell-based; settings: after 48 hours
# Experimental: Furthermore, treatment with the L-deoxyminosugars L-DNJ, L-NBDNJ, L-AMPDNM and L-MONDNJ caused a decrease of the number of HeLa cells after 48 hours as shown by the cell proliferation assay reported in Table 6.
# [6] = tested on: HeLa tumor epithelial cells; assay: HS immunostaining in HeLa cells; assay type: cell-based; settings: 48 hours
# Experimental: To test whether treatment with the selected L-deoxyminosugars (L-DNJ, L-NBDNJ, L-AMPDNM and L-MONDNJ) could interfere with HS synthesis we selected a cell line not mutated for NAGLU and highly decorated by heparan sulfate on the cell membrane. For this purpose, HeLa tumor epithelial cells (purchased from ATCC) were cultured for 48 hours in the presence of the selected L-iminosugars and the amount of HS was evaluated by immunostaining.
# [7] = tested on: NAGLU-silenced clone (cl5) of human neuroblastoma cell line SK-NBE; assay: Heparan sulfate (HS) immunofluorescence in NAGLU-silenced SK-NBE clone, Sanfilippo B model; assay type: cell-based; settings: 48 hours; for Cells positive for HS (%) / Relative HS fluorescence intensity: cl5 clone, 20 μM; for Effect on HS staining / HS accumulation, in words: clone 5, 20 μM
# Excerpt: as §1
# Clone 5 was grown in the presence of 20 μM of each L-iminosugar under normal growth conditions and after 48 hours the accumulation of heparan sulfate (HS) was evaluated by immunofluorescence staining for HS.
# [8] = tested on: fibroblasts of patients affected by Sanfilippo A (MPS IIIA); assay: HS and Lamp1 immunofluorescence in Sanfilippo A patient fibroblasts; assay type: cell-based, human; settings: 20 μM, 48 hours; for Relative fluorescence intensity compared to HDFa, HS / Relative fluorescence intensity compared to HDFa, Lamp1 / Cells positive for HS (%) / Cells positive for Lamp1 (%): MPS-IIIA fibroblasts; for Effect on HS and lysosome (Lamp1) accumulation, in words: Sanfilippo A (MPS IIIA) patient fibroblasts
# Excerpt: as §4, §7, §5, §6
# [9] = tested on: control clone (WT) of human neuroblastoma cell line SK-NBE; assay: Lamp1 immunofluorescence in control (WT) SK-NBE clone; assay type: cell-based; settings: 20 μM, 48 hours
# Excerpt: as §1, §2, §3
# [10] = tested on: NAGLU-silenced clone (cl5) of human neuroblastoma cell line SK-NBE; assay: Immunofluorescence against beta-amyloid peptide 1-42 in NAGLU-silenced SK-NBE clone; assay type: cell-based; settings: 20 μM, 48 hours
# Experimental: The clone (c15) stably silenced for NAGLU, the causative gene of MPS IIIB, is able to mimic the features of neurodegenerative diseases as it accumulates beta-amyloid fibers in the cytoplasm. In fact, Sanfilippo Syndrome is also defined as “childhood Alzheimer”.
# The diseased clone (c15) was grown in the presence of L-DNJ, L-NBDNJ, L-AMPDNM and L-MONDNJ and the corresponding enantiomers D-DNJ, D-NBDNJ, D-AMPDNM and D-MONDNJ at a dosage of 20 μM and after 48 hours were processed by immunofluorescence against the beta-amyloid peptide 1-42. […] On contrary, treatment with the corresponding D-enantiomers has no effect on the reduction of the accumulation of amyloid fibers compared to the untreated clone (mock) (Table 7).
SMILES,Cells positive for Lamp1 (%) [1],Relative Lamp1 fluorescence intensity [1],"Effect on lysosomal enlargement and accumulation (lysosomal phenotype), in words [1]",Cells positive for HS (%) [2],Relative HS fluorescence intensity [2],"Relative fluorescence intensity compared to HDFa, HS [3]","Relative fluorescence intensity compared to HDFa, Lamp1 [3]","Relative fluorescence intensity compared to HDFa, HS [4]","Relative fluorescence intensity compared to HDFa, Lamp1 [4]","Effect on HS and lysosome (Lamp1) accumulation, in words [4]",Cell number [5],"Effect on HS accumulation on the HeLa cell membrane, in words [6]",Relative HS fluorescence intensity [6],Cells positive for HS (%) [7],Relative HS fluorescence intensity [7],"Effect on HS staining / HS accumulation, in words [7]","Relative fluorescence intensity compared to HDFa, HS [8]","Relative fluorescence intensity compared to HDFa, Lamp1 [8]","Effect on HS and lysosome (Lamp1) accumulation, in words [8]",Cells positive for Lamp1 (%) [9],other results
CCCCCCCCCOCCCCCN1C[C@@H](O)[C@H](O)[C@@H](O)[C@@H]1CO [L-NPDNJ•HCl],84%,2.65,did not show any activity,4.4%,0.93,1.0,1.0,5.9,3.3,did not show any activity,4.7 · 10^5,did not show any activity,1.19,97.5%,3.65,did not show any activity,5.2,2.8,did not show any activity,3.7%,Relative Lamp1 fluorescence intensity [9]: 1.10
"COCCCCCCCCCN1C[C@@H](O)[C@H](O)[C@@H](O)[C@@H]1CO [L-MONDNJ•HCl, N-methoxynonyl L-DNJ]",21%,1.00,dramatic reduction,2.1%,0.97,1.0,1.0,1.7,1.3,strong reduction,3.1 · 10^5,strong reduction,0.11,4.9%,1.15,dramatic reduction,1.8,2.2,strong reduction,2.4%,"Effect on the number of HeLa cells, in words [5]: decrease; Relative amyloid fluorescence intensity [10]: 0.01; Relative Lamp1 fluorescence intensity [9]: 1.05"
COCCCCCCCCCN1C[C@H](O)[C@@H](O)[C@H](O)[C@H]1CO.Cl [D-MONDNJ•HCl],,,,,,,,,,,5.0 · 10^5,,,,,,,,,,Cells positive for HS (%) [3]: 5.0%; Cells positive for Lamp1 (%) [3]: 5.3%; Cells positive for HS (%) [4]: 95.8%; Cells positive for Lamp1 (%) [4]: 93.8%; Cells positive for HS (%) [8]: 99.2%; Cells positive for Lamp1 (%) [8]: 95.2%; Relative amyloid fluorescence intensity [10]: 1.05
CCCCCCCCCN1C[C@@H](O)[C@H](O)[C@@H](O)[C@@H]1CO [L-NNDNJ•HCl],85%,2.70,did not show any activity,4.1%,0.94,1.0,1.0,5.8,3.1,did not show any activity,4.2 · 10^5,did not show any activity,0.88,97.5%,3.71,did not show any activity,4.9,3.0,did not show any activity,4.1%,Relative Lamp1 fluorescence intensity [9]: 1.04
"OC[C@H]1NC[C@H](O)[C@@H](O)[C@@H]1O [D-DNJ•HCl, deoxynojirimycin]",,,,,,,,,,,4.4 · 10^5,,,,,,,,,,Cells positive for HS (%) [3]: 2.4%; Cells positive for Lamp1 (%) [3]: 5.0%; Cells positive for HS (%) [4]: 94.9%; Cells positive for Lamp1 (%) [4]: 92.5%; Cells positive for HS (%) [8]: 97.3%; Cells positive for Lamp1 (%) [8]: 95.0%; Relative amyloid fluorescence intensity [10]: 0.99
CCCCCCOCCCCCN1C[C@@H](O)[C@H](O)[C@@H](O)[C@@H]1CO [L-HPDNJ•HCl],87%,2.10,did not show any activity,2.4%,0.95,1.0,1.0,5.7,3.0,did not show any activity,4.3 · 10^5,did not show any activity,0.95,95.1%,3.60,did not show any activity,5.4,3.1,did not show any activity,4.8%,Relative Lamp1 fluorescence intensity [9]: 1.00
OC[C@@H]1[C@@H](O)[C@H](O)[C@@H](O)CN1CCCCCOCC12CC3CC(CC(C3)C1)C2 [D-AMPDNM•HCl],,,,,,,,,,,5.1 · 10^5,,,,,,,,,,Cells positive for HS (%) [3]: 4.9%; Cells positive for Lamp1 (%) [3]: 5.1%; Cells positive for HS (%) [4]: 96.4%; Cells positive for Lamp1 (%) [4]: 94.6%; Cells positive for HS (%) [8]: 98.7%; Cells positive for Lamp1 (%) [8]: 96.8%; Relative amyloid fluorescence intensity [10]: 1.02
